Test results from paper PMC7616174, “Development of Novel 4-Arylpyridin-2-one and 6-Arylpyrimidin-4-one Positive Allosteric Modulators of the M1 Muscarinic Acetylcholine Receptor” (ChemMedChem, 2020).

Legend:
[1] = biological target: T1, hM1 mAChR (Homo sapiens, UniProt P11229); assay: IP1 accumulation assay (ACh concentration-response curves in absence or presence of modulator); format: cell-based; details: for αβ (functional cooperativity with ACh) / τB (intrinsic efficacy of the modulator) / log τB (logarithm of intrinsic efficacy of the modulator) / log αβ (logarithm of functional cooperativity between ACh and modulator): IP1 accumulation; for αβ (functional cooperativity with ACh) / τB (intrinsic efficacy of the modulator): antilog, in parentheses; for log τB (logarithm of intrinsic efficacy of the modulator) / log αβ (logarithm of functional cooperativity between ACh and modulator): operational model; for log αβ (logarithm of functional cooperativity between ACh and modulator): pKB constrained to binding value
T1 construct: expressed in transfected cells
T1 sequence (P11229 1-460): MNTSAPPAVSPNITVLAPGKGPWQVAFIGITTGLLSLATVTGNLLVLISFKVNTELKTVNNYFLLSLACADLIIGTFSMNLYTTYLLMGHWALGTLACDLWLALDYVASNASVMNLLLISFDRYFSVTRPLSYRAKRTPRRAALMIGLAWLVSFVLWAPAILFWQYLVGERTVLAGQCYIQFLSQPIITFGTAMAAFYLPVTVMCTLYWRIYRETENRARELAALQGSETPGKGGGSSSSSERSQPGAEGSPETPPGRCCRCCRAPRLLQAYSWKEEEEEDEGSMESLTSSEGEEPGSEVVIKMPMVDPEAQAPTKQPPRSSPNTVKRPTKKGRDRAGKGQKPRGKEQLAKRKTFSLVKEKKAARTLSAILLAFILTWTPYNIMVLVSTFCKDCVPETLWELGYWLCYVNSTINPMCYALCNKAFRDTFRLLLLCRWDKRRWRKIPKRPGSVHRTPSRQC
Protocol: Functional activity of the synthesized analogues as racemic mixtures was investigated in IP1 accumulation assays at the M1 mAChR, as described previously.[13–14] ACh concentration-response curves were generated in the absence or presence of a 1 and 10 μM concentration of each modulator. The change in baseline activity (Δbaseline) is an approximate measure of direct allosteric agonism (τB), whereas the pEC50 shift (ΔpEC50) is an approximate measure of functional cooperativity (αβ) of each modulator with ACh in the investigated signalling pathway. We aimed to identify modulators with various degrees of allosteric agonism and modulatory effects on ACh response, as these could generate distinct in vivo outcomes for applications in different conditions in the CNS or gastrointestinal (GI) tract.[[10g,h,j]]
(§1) The compounds were then fully characterised in two functional assays (Figure 2C and D); the Gq-coupled IP1 accumulation assay (Figure S2), which was used for the initial screening of the compounds, and a β-arrestin 2 recruitment assay (Figure S3). The operational efficacy (τB) values for the modulators and their functional cooperativity estimates with ACh (logαβACh) at both signalling pathways were estimated by applying an operational model of allosterism and agonism to the data [Eq. (3)],[16] and are listed in Table 5.
FlpIn CHO cells stably expressing the hM1 mAChR were seeded at 25000 per well of 96-well transparent cell culture plates and grown overnight. […] Cells were then stimulated with increasing concentration of ACh in the absence or presence of increasing concentrations of each modulator for 1 h at 37°C. […] Seven μL of cell lysates were transferred into wells of 384-well Proxiplates (Perki-nElmer Life Sciences), and IP1 levels were measured using the IP-One assay kit (Cisbio, Codolet, France). […] The signal was expressed as the HTRF ratio, interpolated from the standard curve, and normalized to the maximum response to ACh.
Changes in both baseline and pEC50 were quantified by subtracting the estimates at each M1 PAM concentrations with the control values. Propagation of the error on baseline and potency values were determined as follows [Eq. (1)]: σΔ=σPAM2+σcont.2 where σΔ is the standard error of the mean (SEM) for the change in value, and σPAM and σcont. are the SEM from the three-parameter logistic equation analysis in presence or absence of M1 PAM, respectively.
(§2) Functional interaction studies between ACh and allosteric modulators in IP1 and β-arrestin 2 recruitment assays were analysed according to a three-parameter logistic equation or the following operational model of allosterism and agonism [Eq. (3)].[16] E=Basal+(Em−Basal)([A](KB+αβ[B])+τB[B]EC50)^n/EC50n(KB+[B])^n+([A](KB+αβ[B])+τB[B]EC50)^n where Em is the maximal possible system response, and Basal is the response in the absence of agonist. [A] and [B] are concentrations of orthosteric and allosteric ligands, respectively. KB is the equilibrium dissociation constant of allosteric ligand, and EC50 is the concentration of orthosteric agonist required to achieve half maximal response. α and β represent the magnitude of the allosteric effects on orthosteric ligand affinity and efficacy, respectively; τB is the efficacy of allosteric ligand, and n is the slope factor of the transducer function that links occupancy to response.

[2] = biological target: T1, hM1 mAChR; assay: Whole-cell [3H]NMS equilibrium competition radioligand binding; details: [3H]NMS binding; for α (binding cooperativity with ACh): antilog, in parentheses
Protocol: To determine the affinity (pKB) of the allosteric modulators for the allosteric site, and their binding cooperativity with ACh (log αACh) at the M1 mAChR, whole cell equilibrium competition binding studies were performed, using [^3H]NMS to label the orthosteric site.
FlpIn Chinese hamster ovary (CHO) cells stably expressing the hM1 mAChR were grown in Dulbecco’s modified Eagle’s medium (DMEM) (Invitrogen, Carlsbad, CA) supplemented with 5% foetal bovine serum (FBS) (Thermo-Trace, Melbourne, Australia) and 300 μg/mL G418 (Invitrogen, Carlsbad, CA). The cells were plated at 50,000 cells per well of 96-well white clear bottom plates (Greiner Bio-one, Kremsmünster, Austria), and were grown overnight. The following day, cells were washed twice with Phosphate Buffered Saline (PBS), and incubated with increasing concentrations of ACh (Sigma) in the absence or presence of increasing concentrations of each modulator and 0.2 nM [^3H]NMS (PerkinElmer Life Sciences) in binding buffer (20 mM HEPES, 100 mM NaCl, 10 mM MgCl2, pH 7.4) for 5 h at room temperature. Nonspecific binding was determined using atropine at the final concentration of 10 μM. The assays were terminated by rapid removal of the unbound radioligand followed by two washes with 100 μL/well ice-cold 0.9% NaCl buffer. Radioactivity was determined by addition of 100 μL/well Ultima gold (PerkinElmer Life Sciences) and counting in a MicroBeta plate reader (PerkinElmer Life Sciences).
Binding interaction studies with allosteric ligands were fitted to the following allosteric ternary complex model [Eq. (2)][15] Y=Bmax|A|/[Λ]+[KAKB/α^′[B]+KB][1+[I]/K1+[B]/KB+α[I][B]/KIKB] where Bmax is the total number of receptors, [A], [B] and [I] denote the concentrations of radioligand, allosteric modulator, and orthosteric ligand, respectively; KA, KB and KI are their respective equilibrium dissociation constants. α’ and α are the affinity cooperativity factors between the allosteric ligand and radioligand or the allosteric modulator and ACh, respectively. Values of α or α’ > 1 denote positive cooperativity, values < 1 but > 0 denote negative cooperativity, and a value of 1 indicates neutral coopera-tivity.

[3] = biological target: T2, M1 mAChR (Homo sapiens, UniProt P11229); assay: β-arrestin 2 recruitment assay (BRET); format: cell-based; details: for αβ (functional cooperativity with ACh) / τB (intrinsic efficacy of the modulator): antilog, in parentheses; for log τB (logarithm of intrinsic efficacy of the modulator) / log αβ (logarithm of functional cooperativity between ACh and modulator): operational model; for log αβ (logarithm of functional cooperativity between ACh and modulator): pKB constrained to binding value
T2 construct: expressed in transfected cells; host or cells: parental FlpIn CHO cells (transient, PEI)
T2 sequence (P11229 1-460): T1 sequence (P11229 1-460)
From the text: as §1
Parental FlpIn CHO cells were plated at 30000 cells/well of 96-well white Culture plates (Perkin Elmer Life Sciences) and transiently transfected with 10 ng/well of M1 Renilla luciferase (Rluc)-8 and 40 ng/well of YFP-β-arrestin 2 using linear polyethyleneimine (PEI/DNA ratio 6:1) diluted in 150 mM NaCl. DNA:PEI complexes were formed by 15 min incubation at room temperature then added to the cells and incubated at 37°C for 24 h prior to use. Cells were then washed and equilibrated in Hanks’ balanced salt solution for 1 h at 37°C. Coelenterazine h at a final concentration of 5 μM was added to each well, followed by addition of increasing concentrations of ACh in the absence or presence of increasing concentrations of each modulator. Lumines-cence and fluorescence signals were measured 5 min after agonist stimulation using the LUMIstar Omega plate reader (BMG LabTech, Offenburg, Germany). […] Data were then normalized to the maximum response to ACh.
as §2

## COc1ccc(Cn2cc(C(=O)O)c(=O)c3ccccc32)cc1 [BQCA, reference compound]
[1]
  αβ (functional cooperativity with ACh): 389
  τB (intrinsic efficacy of the modulator): 6
  log τB (logarithm of intrinsic efficacy of the modulator): 0.76±0.03
  log αβ (logarithm of functional cooperativity between ACh and modulator): 2.59±0.07
[2]
  α (binding cooperativity with ACh): 245
[2]; mean ± SEM
  log αACh (logarithm of binding cooperativity between ACh and modulator): 2.39±0.22
[3]
  αβ (functional cooperativity with ACh): 89
  τB (intrinsic efficacy of the modulator): 1
  log τB (logarithm of intrinsic efficacy of the modulator): –0.03±0.10
  log αβ (logarithm of functional cooperativity between ACh and modulator): 1.95±0.19

## Cn1cc(-c2ccc(COc3ccccc3-c3ccn(C4CCCCC4O)c(=O)c3)cc2)cn1 (stereo not shown) [Compound 1, 1-(2-Hydroxycyclohexyl)-4-(2-((4-(1-methyl-1H-pyrazol-4-yl)-benzyl)oxy)phenyl)pyridin-2(1H)-one]
[1]; 1 μM modulator, FlpIn CHO hM1 cells, mean ± SEM, 3 experiments
  ΔpEC50 [1 μM]: change in ACh pEC50 in presence of M1 PAM compared to control curve: 0.88±0.09
[1]; 1 μM modulator, FlpIn CHO hM1 cells, mean ± SEM, 3 experiments, read-out: Δbaseline [1 μM]: change in basal response in presence of M1 PAM compared to control curve
  activation at 1 µM: 15.8 ± 2.3%
[1]; 10 μM modulator, FlpIn CHO hM1 cells, mean ± SEM, 3 experiments
  ΔpEC50 [10 μM]: change in ACh pEC50 in presence of M1 PAM compared to control curve: 1.31±0.15
[1]; 10 μM modulator, FlpIn CHO hM1 cells, mean ± SEM, 3 experiments, read-out: Δbaseline [10 μM]: change in basal response in presence of M1 PAM compared to control curve
  activation at 10 µM: 58.3 ± 2.3%
[1]
  αβ (functional cooperativity with ACh): 100
  τB (intrinsic efficacy of the modulator): 4
  log τB (logarithm of intrinsic efficacy of the modulator): 0.60±0.03
  log αβ (logarithm of functional cooperativity between ACh and modulator): 2.00±0.10
[2]; allosteric ternary complex model, mean ± SEM, read-out: pKB (negative logarithm of the allosteric modulator equilibrium dissociation constant) (converted)
  Kb: 11 µM
[2]
  α (binding cooperativity with ACh): 112
[2]; mean ± SEM
  log αACh (logarithm of binding cooperativity between ACh and modulator): 2.05±0.17
[3]
  αβ (functional cooperativity with ACh): 65
  τB (intrinsic efficacy of the modulator): 1
  log τB (logarithm of intrinsic efficacy of the modulator): –0.01±0.05
  log αβ (logarithm of functional cooperativity between ACh and modulator): 1.81±0.09
